From article PMC11697113, “The Hsc70 system maintains the synaptic SNARE protein SNAP-25 in an assembly-competent state and delays its aggregation [drawing 1]” (The Journal of Biological Chemistry, 2024)

Biological target: T1, Hsc70 (Homo sapiens, UniProt P11142)
T1 construct: 6X His-tag (TEV-cleavable) (cleaved yes); made in house; host or cells: E. coli Rosetta (DE3)
Experiment: SNAP-25 cellulose-bound peptide array probed with Hsc70
Format: binding
Conditions: Hsc70 100 nM, 1 h, 25 °C; for Hsc70 binding of the SNAP-25 sequence in the peptide array: ADP/ATP, anti-Hsc70 chemiluminescence
Source text: To explore in greater depth the binding sites for Hsc70 in SNAP-25, we screened a cellulose-bound peptide array spanning the full SNAP-25 sequence with 13-residue long peptides, overlapping by ten residues, and probed with Hsc70 in the presence of a two-fold excess of ATP and […] of ADP. The binding of Hsc70 to sites in the array was then visualized with an anti-Hsc70 primary antibody and a horse radish peroxidase-tagged secondary antibody to enable visualization by chemiluminescence (Fig. 4A). To quantitatively analyze the array, we used ImageJ (https://imagej.net/ij/) and plotted the intensity under the area for each spot. […] One site is located in the SNN, one in the LOOP, and one in the LOOP-SNC region (called SNC site) (Fig. 4A) […] (Fig. 1C). […] The binding site in the LOOP region is very close to the cysteine residues that become palmitoylated as SNAP-25 moves to its membrane-localized state. It is formally possible that Hsc70 binds to SNAP-25 in the initial un-palmitoylated state and dissociates upon palmitoylation and association with the plasma membrane. However, it can be assumed that the binding of this region to Hsc70 is not implicated in the events directly preceding SNARE complex assembly, as it will not be accessible to the chaperone. Therefore, we posit that chaperone binding to the SNN and SNC regions plays a mechanistic role in facilitating productive SNAP-25 association with the other SNARE proteins.
B, quantification of the spots from Figure 4A using ImageJ (Hsc70 (gray) and Hsc70-CSPαJ (dark gray)). Signals corresponding to SNN, Loop and Loop-SNC peptides are marked in orange, blue, and green, respectively. Orange, blue, and green lines at the top of the graph indicate the SNN, Loop and SNC regions, respectively. C, schematic representation of SNAP-25 showing the Hsc70 binding sequences (SNN (orange), Loop (black), and Loop-SNC (green)) identified in the peptide array. […]
A peptide array of SNAP-25 was obtained from CEM corporation. […] The chemiluminescence was captured in a G-box (Syngene), and the images were analyzed using ImageJ.

T1 sequence (P11142 whole entry): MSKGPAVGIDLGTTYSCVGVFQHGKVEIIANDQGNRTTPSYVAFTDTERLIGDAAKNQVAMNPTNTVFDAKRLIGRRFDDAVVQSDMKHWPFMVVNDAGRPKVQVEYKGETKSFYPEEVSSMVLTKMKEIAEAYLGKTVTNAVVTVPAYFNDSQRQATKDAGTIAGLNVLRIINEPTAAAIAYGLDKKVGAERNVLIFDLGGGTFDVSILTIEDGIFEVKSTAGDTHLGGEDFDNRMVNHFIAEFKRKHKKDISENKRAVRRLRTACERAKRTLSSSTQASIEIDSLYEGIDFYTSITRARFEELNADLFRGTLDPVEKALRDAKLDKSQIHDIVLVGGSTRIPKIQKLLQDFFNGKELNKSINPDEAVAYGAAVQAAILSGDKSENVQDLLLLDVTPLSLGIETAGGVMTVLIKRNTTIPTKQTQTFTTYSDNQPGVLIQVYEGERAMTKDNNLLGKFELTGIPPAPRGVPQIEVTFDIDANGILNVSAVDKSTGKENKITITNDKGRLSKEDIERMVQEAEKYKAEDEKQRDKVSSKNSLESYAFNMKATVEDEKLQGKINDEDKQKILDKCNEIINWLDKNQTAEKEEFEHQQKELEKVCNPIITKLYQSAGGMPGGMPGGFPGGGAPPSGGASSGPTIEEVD

| Substance | number of major Hsc70 binding sites on SNAP-25 (13-residue peptides overlapping by ten, 20 μM ADP, 200 nM ATP, ECL, ImageJ, sites in SNN, LOOP and LOOP-SNC) | Hsc70 binding of the SNAP-25 sequence in the peptide array |
| --- | --- | --- |
| synaptosomal-associated 25 kDa protein [SNAP-25] | Three major Hsc70 binding sites |  |
| EREQMAISGGFIRR [SNCP, peptide … from the LOOP-SNC domain of SNAP-25] |  | strong binding |
| RRMLQLVEESK [SNNP, peptide … from the SNN domain of SNAP-25] |  | strong binding |
